The source of these data is patent US11013677B2, “Methods and compositions to reduce staining for antibacterial oral care compositions” (Colgate-Palmolive Company, priority 2019, dated 2021).

SMILES strings stand for the structures.

A short description of test [1]: Bovine enamel model of CHX staining, FeCl3/CHX/chelator solutions, change in whiteness ΔW*. As to conditions: for effect on teeth staining caused by CHX: when exposed to an iron solution (FeCl3 + CHX). The source says: (§1) A bovine enamel model was used to mimic CHX staining. The bovine teeth samples were kept hydrated until use. Baseline (L*, a*, and b*) measurements were taken of the samples before treatment using a spectroshade. The samples were then placed in a solution representing each of the treatments of Table 2 and then in artificial saliva. This cycle of soaking in the treatment and in artificial saliva was then repeated 14 times for each sample, with spectroshade measurements taken every two cycles immediately after soaking in the artificial saliva step (the samples were dabbed dry before measurements). Control samples soaked in FeCl3 alone and FeCl3+CHX solutions were also done.
(§2) The L*, a*, and b* values were used to calculate the change in whiteness (ΔW*) for each tooth after treatment as compared to the baseline values using Formulas (1) and (2) below. W*=((a*−0)^2+(b*−0)^2+(L*−100)^2)^1/2 Formula (1) ΔW*=W*treated−W*baseline Formula (2)
The more positive the value of ΔW*, the darker the tooth color is.

Test [2] can be described thus: Bovine enamel staining model, CHX oral care compositions with metal chelator, ΔW*. As to conditions: for effect on CHX-staining (ΔW*): added to an oral care composition containing CHX.
Text: as §1, §2
Table 4 illustrates the effects of a metal chelator on CHX-caused staining when incorporating into an oral care composition including CHX according to implementations of the present disclosure. In particular, Table 4 illustrates the ΔW* for 5 oral care compositions containing CHX and measured similarly as described above. The more positive the value of ΔW*, the darker the tooth color is.
Oral Care Composition #1 is a commercially available antimicrobial oral rinse with 0.12% chlorhexidine gluconate. Oral Care Compositions #2-#5 are the same as Oral Care Composition #1 except they include the specified amounts (by weight) of a metal chelator.

In the case of `O=P(O)(O)CN(CP(=O)(O)O)CP(=O)(O)O` [ATMP, aminotris(methylenephosphonic acid)], in test [1] (ATMP versus IDA, every cycle), the “staining reduction, comparison of chelators” value is reported as “performed better at every cycle compared to IDA”. Also, the “effect on teeth staining caused by CHX” value in test [1] was “decreased the amount of teeth staining caused by CHX”.
For the compound `N[C@@H](CC(=O)O)C(=O)O` [Aspartic acid], the “relative performance in reducing CHX-staining” value in test [2] (1 weight % added to commercial rinse (0.12% chlorhexidine gluconate)) is “best performers”. Also, the “effect on CHX-staining (ΔW*)” value in test [2] is on record as “significantly reduced the amount of CHX-staining”.
Take `[Cl][Fe]([Cl])[Cl]` [FeCl3 alone, FeCl3]: the “ΔW* (change in whiteness)” value is 0 in test [1] (Cycle 0 (baseline), more positive = darker tooth); 1.31 in test [1] (Cycle 4 of treatment/artificial saliva soaking); 0.83 in test [1] (Cycle 6 of treatment/artificial saliva soaking); 0.90 in test [1] (Cycle 8 of treatment/artificial saliva soaking); 0.64 in test [1] (Cycle 10 of treatment/artificial saliva soaking); 0.78 in test [1] (Cycle 14 of treatment/artificial saliva soaking).
In the case of `N[C@@H](CCC(=O)O)C(=O)O` [Glutamic acid], the “relative performance in reducing CHX-staining” value in test [2] (0.2 weight % added to commercial rinse (0.12% chlorhexidine gluconate)) was “best performers”. For the same compound, the “effect on CHX-staining (ΔW*)” value in test [2] was “significantly reduced the amount of CHX-staining”.
With `O=C(O)CC(NC(CC(=O)O)C(=O)O)C(=O)O` (stereo not shown) [Imminodisuccinic acid], the “effect on teeth staining caused by CHX” value in test [1] is on record as “decreased the amount of teeth staining caused by CHX”.
